Laboratory results as given in paper PMC9864790, “Cell-Penetrating Dabcyl-Containing Tetraarginines with Backbone Aromatics as Uptake Enhancers” (Pharmaceutics, 2022).
Where two headings read alike, the source gives them in different places. Starred links: 1 amine or outer side, 2 acyl side, 3 side chain; linkers in the order of their positions; H or OH if unused. Non-standard residues stand in square brackets, D forms with d. Residues, ends and D or L forms follow the SMILES beside them. Groups on a side chain read outwards from the residue. *: point of attachment. Daunorubicin = COc1cccc2c1C(=O)c1c(O)c3c(c(O)c1C2=O)C[C@@](O)(C(C)=O)C[C@@H]3O[C@H]1C[C@H](N*)[C@H](O)[C@H](C)O1; Dabcyl = CN(C)c1ccc(N=Nc2ccc(C(=O)*)cc2)cc1; X1 = O=C(c1ccc2cc(N[*:1])ccc2c1)[*:2]; Suc = O=C(CCC(=O)[*:2])[*:1]; 4Amb = NCc1ccc(C(=O)O)cc1; 4Abz = Nc1ccc(C(=O)O)cc1

Columns and labels:
MCF-7 [1] = assay: In vitro cytostatic activity, MTT assay; assay type: cell-based, human; settings: 3 h incubation with compound (0.4–100 µM), then 3 days culture in serum containing medium, three independent experiments with 4 parallel measurements
Method: (§1) Cells were grown to confluency and were plated into 96-well plates with initial cell number of 5 × 10^3 per well. The cells were incubated at 37 °C for 24 h. Then, cells were treated with the compounds at 0.4–100 µM concentration range for 3 h in 200 µL as the final volume. Control cells were treated with serum free medium at 37 °C for 3 h. After the incubation, the cells were washed with serum free medium twice. To analyze the in vitro cytostatic effect, cells were further cultured for 72 h in serum containing medium. Then, the MTT assay was performed to measure the IC50 values. […] The cells were incubated for 4 h. Then, the plates were centrifuged at 900× g for 5 min, and the supernatant was discarded. To dissolve the formed purple crystals, 100 µL of DMSO was added, and the absorbance was determined at λ = 540 nm and 620 nm using ELISA plate reader (iEMS Reader, Labsystems, Finland). To measure the percentage of cytostasis, the following equation was used for calculation: Cytostatic effect (%) = [1 − (ODtreated/ODcontrol)] × 100; where ODtreated and ODcontrol correspond to the optical densities of the treated and untreated cells, respectively. In each case, three independent experiments were carried out with 4 parallel measurements. […] The curves were defined using MicrocalTM Origin (version 9.2) software: cytostasis was plotted as a function of concentration, fitted to a sigmoidal curve, and based on this curve, the IC50 value was determined.

MDA-MB-231 [2] = assay: In vitro cytostatic activity, MTT assay; assay type: cell-based, human; settings: 3 h incubation with compound (0.4–100 µM), then 3 days culture in serum containing medium, three independent experiments with 4 parallel measurements
Method: as §1

MDA-MB-231 [3] = settings: 3 h incubation, 3 days culture, MTT assay; cited from earlier work
Source text: Table 3 Cytostatic activity of peptide/drug conjugates on MCF-7 and MDA-MB-231. | column: IC50 ±SD (µM) ^a / MDA-MB-231

MCF-7 [4] = settings: 3 h incubation, 3 days culture, MTT assay; cited from earlier work
Source text: Table 3 Cytostatic activity of peptide/drug conjugates on MCF-7 and MDA-MB-231. | column: IC50 ±SD (µM) ^a / MCF-7

MDA-MB-231 cells [5] = assay: Effect of endocytosis inhibitors on cellular uptake (flow cytometry); assay type: cell-based, human; settings: then Cf-labelled peptide conjugate 5 µM, 90 min, 37 °C; for Effect of EIPA on uptake: EIPA 50 µM pretreatment 30 min; for Effect of CPZ on uptake: chlorpromazine (CPZ) 30 µM pretreatment 30 min; for Effect of COL on uptake: colchicine (COL) 20 µM pretreatment 30 min
Source text: Several endocytic routes can be used by CPPs for entry, which then determine their intracellular fate. […] The following inhibitors were applied: 5-(N-ethyl-N-isopropyl)amiloride (EIPA) as […] [39], chlorpromazine (CPZ) to inhibit clathrin-mediated endocytosis, methyl-beta-cyclodextrin (CyD) to deplete cholesterol from the lipid rafts, and thus to inhibit caveolae-mediated endocytosis. Finally, colchicine (COL) was used to ascertain if microtubules are involved in the uptake of the peptides as this agent inhibits microtubule formation.
The effect of inhibitors was studied in the same manner but with pretreatment by an inhibitor for 30 min, and subsequently treated with a peptide conjugate at 5 µM. The cells were then incubated for 90 min at 37 °C. Macropinocytosis was inhibited using 5-(N-Ethyl-N-isopropyl)amiloride (EIPA), clathrin-mediated endocytosis with chlorpromazine (CPZ), colchicine (Col) to assess the role of microtubules, and methyl-β-cyclodextrin (CyD) for the inhibition of caveolae/lipid-raft-mediated endocytosis.
Figure 8 Effect of endocytosis inhibitors on the cellular uptake of peptide conjugates. MDA-MB-231 cells were pretreated with inhibitors EIPA (50 µM), CPZ (30 µM), CyD (5 mM) and COL (20 µM) for 30 min, the cells were then treated with the peptide conjugates (5 µM) for 90 min. Significant difference from control was measured using student’s t test (* p <0.05, ** p < 0.01and **** p< 0.0001).

MDA-MB-231 cells [6] = assay: Effect of ATP depletion (NaN3 and DOG) on cellular uptake (flow cytometry); assay type: cell-based, human; settings: NaN3 10 mM and DOG 5 mM pretreatment 30 min, then peptide conjugate 5 µM, 90 min, 37 °C
Method: In order to inhibit all pathways of endocytosis, MDA-MB-231 cells were pretreated with sodium azide (NaN3) (10 mM) and 2-Deoxyglucose (DOG) (5 mM) for 30 min and the peptide was added to the wells. The cells were then incubated for 90 min at 37 °C.
Figure 9 Effect of endocytosis inhibitors on the cellular uptake of peptide conjugates. MDA-MB-231 cells were pretreated with NaN3 (10 mM) and DOG (5 mM) for 30 min, the cells were then treated with the peptide conjugates (5 µM) for 90 min. Significant difference from control was measured using Student’s t test (* p < 0.05 and ** p < 0.01).

MDA-MB-231 cells [7] = assay: Cellular uptake of fluorescently labelled peptides by flow cytometry; assay type: cell-based, human; settings: 90 min, flow cytometry after trypsin treatment
Method: Cellular uptake of peptides was measured using flow cytometry on MCF-7 and MDA-MB-231 cells. Cells were treated with the fluorescently labelled peptides at 1, 5 and 10 µM concentrations for 90 min at 37 °C.
To study the cellular uptake of fluorophore-labelled peptides, 10^5 cells per well were plated on 24-well plates. Cells were incubated for 24 h at 37 °C, followed by treatment with the peptides at different concentrations, in serum-free medium for different time intervals. For negative control, cells were treated with serum-free medium. After the incubation, the peptide solutions were removed and 100 µL trypsin (0.25%) was added for 5–10 min to remove membrane bound peptides and detach the adherent cells from the plates. […] The fluorescence intensity of cells was quantified by flow cytometer (BD LSR II, BD Bioscience, San Jose, CA, USA). Data were analyzed with FACSDiVa 5.0 software.
Cells were treated with 1, 5 and 10 µM peptide solution for 90 min. The fluorescence intensity of the cells was determined by flow cytometry after trypsin treatment. […]
Cells were treated with 1, 5 and 10 µM peptide solutions for 90 min. The fluorescence intensity of the cells was determined by flow cytometry after trypsin treatment.

Compound | IC50 (MCF-7 [1]) [µM] | IC50 (MDA-MB-231 [2]) [µM] | IC50 (MDA-MB-231 [3]) [µM] | IC50 (MCF-7 [4]) [µM] | also measured
COc1cccc2c1C(=O)c1c(O)c3c(c(O)c1C2=O)C[C@@](O)(C(C)=O)C[C@@H]3O[C@H]1C[C@H](NC(=O)CCC(=O)NCCCC[C@H](NC(=O)[C@H](CCCNC(=N)N)NC(=O)[C@H](CCCNC(=N)N)NC(=O)[C@H](CCCNC(=N)N)NC(=O)[C@H](CCCNC(=N)N)NC(=O)c2ccc(CNC(=O)c3ccc(N=Nc4ccc(N(C)C)cc4)cc3)cc2)C(N)=O)[C@H](O)[C@H](C)O1 [Dabcyl-AMBA-Arg-Arg-Arg-Arg-Lys(DauSuc)] ({Dabcyl-4Amb}-RRRRK([Suc-Daunorubicin])-NH2) | 10.3 ± 5 | 10.1 ± 6 |  |  | 
COc1cccc2c1C(=O)c1c(O)c3c(c(O)c1C2=O)C[C@@](O)(C(C)=O)C[C@@H]3O[C@H]1C[C@H](NC(=O)CCC(=O)NCCCC[C@H](NC(=O)[C@H](CCCNC(=N)N)NC(=O)[C@H](CCCNC(=N)N)NC(=O)[C@H](CCCNC(=N)N)NC(=O)[C@H](CCCNC(=N)N)NC(=O)c2ccc3cc(NC(=O)c4ccc(N=Nc5ccc(N(C)C)cc5)cc4)ccc3c2)C(N)=O)[C@H](O)[C@H](C)O1 [Dabcyl-NAPH- Arg-Arg-Arg-Arg-Lys(DauSuc)] (Dabcyl-[X1]RRRRK([Suc-Daunorubicin])-NH2) | 15 ± 4.2 | 16.6 ± 0.5 |  |  | 
COc1cccc2c1C(=O)c1c(O)c3c(c(O)c1C2=O)C[C@@](O)(C(C)=O)C[C@@H]3O[C@H]1C[C@H](NC(=O)CCC(=O)NCCCC[C@H](NC(=O)[C@H](CCCNC(=N)N)NC(=O)[C@H](CCCNC(=N)N)NC(=O)[C@H](CCCNC(=N)N)NC(=O)[C@H](CCCNC(=N)N)NC(=O)c2ccc(NC(=O)c3ccc(N=Nc4ccc(N(C)C)cc4)cc3)cc2)C(N)=O)[C@H](O)[C@H](C)O1 [Dabcyl-PABA- Arg-Arg-Arg-Arg-Lys(DauSuc)] ({Dabcyl-4Abz}-RRRRK([Suc-Daunorubicin])-NH2) | 17.7 ± 1.2 | 14.3 ± 1.1 |  |  | 
CN(Cc1cnc2nc(N)nc(N)c2n1)c1ccc(C(=O)N[C@@H](CCC(=O)O)C(=O)O)cc1 [MTX, methotrexate] |  |  | > 100 | 0.8 ± 0.3 | 
Dabcyl-AMBA-RRRRK |  |  |  |  | Effect of EIPA on uptake (MDA-MB-231 cells [5]): decreased the uptake; Effect of CPZ on uptake (MDA-MB-231 cells [5]): did not cause any inhibition; Effect of COL on uptake (MDA-MB-231 cells [5]): did not cause any inhibition; Uptake after pretreatment with NaN3 and DOG (MDA-MB-231 cells [6]): significantly lower
Dabcyl-PABA-RRRRK |  |  |  |  | Effect of EIPA on uptake (MDA-MB-231 cells [5]): did not alter the internalization; Effect of CPZ on uptake (MDA-MB-231 cells [5]): did not cause any inhibition; Effect of COL on uptake (MDA-MB-231 cells [5]): did not cause any inhibition; Uptake relative to Arg8 (MDA-MB-231 cells [7]; CY5-labelled peptide, at all concentrations (1, 5 and 10 µM)): 3 to 4.5 folds; Relative uptake intensity (MDA-MB-231 cells [7]; Cf-labelled peptide, 10 µM, 37 °C, fluorescence intensity relative to Dabcyl-RRWRRK(Cf) at 10 µM (100%)): 340%; Uptake after pretreatment with NaN3 and DOG (MDA-MB-231 cells [6]): significantly lower
Dabcyl-Trp-Arg-Arg-Arg-Arg-Lys(DauSuc) |  |  | 18 ± 6.7 | 26.4 ± 4.2 | 
Dabcyl-Trp-Arg-Arg-Arg-Arg-Lys(MTX) |  |  | 7.4 ± 2.2 | 36.9 ± 3 | 
Succinylated daunomycin [DauSuc] |  |  | > 100 | 24.5 ± 7.1 | 
